Data set [1] in a line: TBARS accumulation in liver homogenate (long-term LPO). Set-up: species or system Russian sturgeon. As to conditions: 0.1 mM. The source says: The liver is the main organ that all metabolic products pass through. In addition, proteins of the antioxidant defense system are concentrated in the liver, which prevent the toxic effects of various ROS. The oxidation of liver lipids, which compose cell membranes, directly causes cell damage in vivo. Therefore, the liver is similar to biological systems and is considered as a classic model system for studying LPO processes in vitro and in vivo [56]. We studied the antioxidant potential of the compounds on a model system of a long-term process of lipid peroxidation in sturgeon liver. The assay allowed evaluation of the effect of the compounds under prolonged oxidative stress when possible an increase in peroxidation processes and a decrease of antioxidants concentration over time, and inversion of antioxidant/prooxidant properties in vitro [57].
The experiments in vitro were carried out using the liver of a Russian sturgeon raised in a unique aqua complex for the reproduction of valuable fish species of the Federal Research Center Southern Scientific Center of the Russian Academy of Sciences within the framework of State Assignment (Project No. 122020100328-1). All manipulations were conducted according to the international rules GLP (Good Laboratory Practice). The samples of fish liver were fixed in the cold.
The LPO intensity was estimated according to the accumulation of carbonyl products forming a colored complex with thiobarbituric acid (TBARS). A liver of Russian sturgeon (10 g) was homogenized in the cold, and the studied compounds were added at a concentration of 0.1 mM in EtOH to a solution of 1.2% potassium chloride (390 mL) precooled to 0–4 °C. The absence of any influence of EtOH on the LPO rate in the control was preliminarily established under these conditions. […] The supernatant was sampled, and the extinction of sample was measured using a SF-103 spectrophotometer at λ = 532 nm relative to the control sample. […]

Data set [2] concerns A-549. As to the kind of experiment: Annexin V/Dead Cell assay. As to conditions: A-549, 2 × IC50, 48 h. The format is cell-based, human. The source says: (§1) Apoptosis or programmed cell death is an important and active regulatory pathway of cell growth and proliferation. Cells respond to specific induction signals by initiating intracellular processes that result in characteristic physiological changes. Among these are externalization of phosphatidylserine (PS) to the cell surface, cleavage and degradation of specific cellular proteins, compaction and fragmentation of nuclear chromatin, and loss of membrane integrity. Phosphatidylserine (PS) is normally located in the inner part of the cell membrane. In the initial stage of apoptosis, the PS residues which translocated to the extracellular are detected by Annexin V, which is a calcium-dependent phospholipid-binding protein with a high affinity for PS. Annexin V flow cytometric assay was used to evaluate the compounds’ ability to induce apoptosis and influence on cell death. HCT-116 colon carcinoma and A-549 lung adenocarcinoma cells were treated by disulfides 2 and 3.
(§2) HCT-116 (colon carcinoma) and A-549 (lung carcinoma) cells (1 × 10^6) were seeded in a six-well plate and were incubated for 24 h. […] After incubation, the cells were harvested by trypsinization, precipitated by centrifugation (3000 rpm), washed with PBS, recentrifuged, and the buffer was removed. DMEM was added to achieve a cell concentration of 400–1000 cells/µL. The Muse Annexin V & Dead Cell Kit reagent (100 µL) was added to the cells and […] for 20 min at room temperature in the dark. The results were recorded on a Muse Cell Analyzer flow cytometer (Merck, Rahway, NJ, USA).

In data set [3] the test system is HCT-116. As to the kind of experiment: Annexin V/Dead Cell assay. The format is cell-based, human.
Excerpt: as §1, §2

Details of data set [4]: method as in doi:10.3906/kim-1904-40. As to conditions: PASS, cited from earlier work.
On the set-up of data set [5]: method as in doi:10.1016/j.arabjc.2021.103068. As to conditions: all stages of LPO; cited from earlier work.
Details of data set [6]: method as in doi:10.1016/j.arabjc.2021.103068. As to conditions: 1 mmol/L additive, 65 °C; cited from earlier work.
The subject of data set [7] is SOD. Set-up: method as in doi:10.3906/kim-1904-40. As to conditions: adrenaline oxidation with biopreparation; cited from earlier work.
On the set-up of data set [8]: method as in doi:10.1016/j.arabjc.2021.103068. As to conditions: read-out: DPPH IC50; cited from earlier work.
Setting [9] is: probability of lack of activity.
The mark [10] stands for this setting: probability of presence of activity.

`c1ccc(SSSc2ccccc2)cc1` [Compound 1, diphenyl trisulfide] showed a melting point of 58 to 60 °C. Further, the “reduction of the level of TBARS” value in [1] (after 1 h of incubation) is on record as 64%. In addition, the “reduction of the level of TBARS” value in data set [1] (after 24 h) is 48%. Moreover, the “reduction of the level of TBARS” value in [1] (after 48 h) stood at 37%.

In the case of `COc1ccccc1SSc1ccccc1OC` [Compound 2, bis(2-methoxyphenyl) disulfide], in [2], the “Early Apop.” value stood at 24.0% and the total apoptotic cells came to 25.2%.

As to `COc1ccc(SSc2ccc(OC)c(OC)c2)cc1OC` [Compound 3, bis(3,4-dimethoxyphenyl) disulfide], in data set [2], the “Early Apop.” value is listed as 38.2% and the total apoptotic cells is listed as 42.6%. Further, in [3] (HCT-116, 2 × IC50, 24 h), the “Early Apop.” value is reported as 9.1%, the “Late Apop./Dead” value is recorded as 2.7% and the total apoptotic cells worked out at 11.8%. Moreover, in data set [3] (HCT-116, 2 × IC50, 48 h), the “Late Apop./Dead” value was 17.7% and the total apoptotic cells was 44%.

`c1ccc(SSc2ccccc2)cc1` [Compound 5, diphenyl disulfide]: in [4] (setting [9]), the “Antidote, Pi” value is 0.078; the “Free radical scavenger, Pi” value was 0.056; the “Nitric oxide scavenger, Pi” value is 0.013; the “Oxygen scavenger, Pi” value is recorded as 0.018. In addition, in [4] (setting [10]), the “Antidote, Pa” value is on record as 0.228; the “Free radical scavenger, Pa” value is on record as 0.230; the “Nitric oxide scavenger, Pa” value was 0.274; the “Oxygen scavenger, Pa” value was 0.621. For the same compound, in data set [5], the “anti-/prooxidant effect in liver LPO” value was “prolonged prooxidant activity”. Also, in data set [6], the “LOOH, k0/k1 (relative rate constant of LOOH formation)” value is 0.79 ± 0.11. For the same compound, the “SOD Activity of Liver Sturgeon, % Inhibition” value in data set [7] is reported as 61 ± 4.8 %.

Regarding `CC(C)(C)c1cc(SSc2cc(C(C)(C)C)c(O)c(C(C)(C)C)c2)cc(C(C)(C)C)c1O` [Compound 6, bis(3,5-di-tert-butyl-4-hydroxyphenyl) disulfide], in data set [4] (setting [9]), the “Antidote, Pi” value was 0.027; the “Antioxidant, Pi” value is reported as 0.005; the “Free radical scavenger, Pi” value is 0.012; the “Nitric oxide scavenger, Pi” value is 0.012. Further, the “Oxygen scavenger, Pi” value in data set [4] (setting [9]) is 0.044. In data set [4] (setting [10]), the “Antidote, Pa” value is given as 0.317; the “Antioxidant, Pa” value was 0.549; the “Free radical scavenger, Pa” value was 0.473; the “Nitric oxide scavenger, Pa” value is 0.278. Besides, the “Oxygen scavenger, Pa” value in data set [4] (setting [10]) is on record as 0.519. The “anti-/prooxidant effect in liver LPO” value in data set [5] is “pronounced antioxidant effect”. The “LOOH, k0/k1 (relative rate constant of LOOH formation)” value in [6] was 0.49 ± 0.05. In addition, the half-inhibitory concentration (IC50) in [8] is 20.09 ± 0.02 µM. Further, the “SOD Activity of Liver Sturgeon, % Inhibition” value in [7] is listed as 85 ± 3.0 %.

Broadly, the melting point is the temperature, or range, at which the solid turns liquid. By IC50 is commonly meant the concentration that gives 50% inhibition.
